Measured values from patent US20250110130A1, “EX VIVO PROTEASE ACTIVATION AND DETECTION” (SunBird Bio, Inc., priority 2021, published 2025).
Non-standard residues stand in square brackets, D forms with d. Primed or numbered codes have the meaning given here. No end group written: not given here. *: point of attachment. CPQ2 = fluorescent quencher, paired with 5-carboxyfluorescein; 5FAM = O=C1OC2(c3ccc(O)cc3Oc3cc(O)ccc32)c2ccc(C(=O)*)cc21; FAM = 5-carboxyfluorescein (fluorescent label); PEG2′ = PEG spacer

Tests used:
[1] = test system: protease (caspase) activity in mouse plasma; experiment: Ex vivo probe assay in plasma of the Jo2 mouse model of fulminant hepatitis; type: biochemical; conditions: mouse plasma 3 hours after Jo2 injection
Description: Fulminant hepatitis is induced after injection intraperitoneal of monoclonal antibody anti-CD95 (Jo2, BD biosciences, 4 ug/animal), and mouse plasma samples were collected 3 hours after Jo2 injection.
The comparison with mass spectrometry data also aligns and confirms high concordance with the ex vivo approach, which is reassuring to confirm the existence of a biologically relevant signal.

MMP13 = MMP13 (Homo sapiens, UniProt P45452); experiment: Recombinant protease screen of probes; type: biochemical; conditions: recombinant MMP13, 1 h fluorescence read
Description: (§1) To determine different probes' ability to cleave MMPs and/or DPP4, samples were pipetted into each well in a 384 well plate. […] The plate was centrifuged again, and the plate was then placed into the plate reader for a 1 h fluorescence read.

[2] = test system: MMP protease signal in mouse plasma; experiment: Zinc reactivation of MMPs in mouse plasma, healthy vs NASH; type: biochemical; conditions: for Fold change ratio, Zinc Buffer: Zinc MMP buffer
Text: To perform this experiment, samples were pipetted into each well of a 384 well plate. […] The plate was kept on ice throughout procedure. […] Then, the place was centrifuged again.
A summary table of the results can be found in Table 4.

MMP2 [3] = molecular target: T1, MMP2 (Homo sapiens, UniProt P08253); experiment: Recombinant MMP2 spike-in to human K2 EDTA plasma with Zinc titration; type: biochemical; parameters: host or cells: spiked into human K2 EDTA plasma
T1 sequence (P08253 110-660): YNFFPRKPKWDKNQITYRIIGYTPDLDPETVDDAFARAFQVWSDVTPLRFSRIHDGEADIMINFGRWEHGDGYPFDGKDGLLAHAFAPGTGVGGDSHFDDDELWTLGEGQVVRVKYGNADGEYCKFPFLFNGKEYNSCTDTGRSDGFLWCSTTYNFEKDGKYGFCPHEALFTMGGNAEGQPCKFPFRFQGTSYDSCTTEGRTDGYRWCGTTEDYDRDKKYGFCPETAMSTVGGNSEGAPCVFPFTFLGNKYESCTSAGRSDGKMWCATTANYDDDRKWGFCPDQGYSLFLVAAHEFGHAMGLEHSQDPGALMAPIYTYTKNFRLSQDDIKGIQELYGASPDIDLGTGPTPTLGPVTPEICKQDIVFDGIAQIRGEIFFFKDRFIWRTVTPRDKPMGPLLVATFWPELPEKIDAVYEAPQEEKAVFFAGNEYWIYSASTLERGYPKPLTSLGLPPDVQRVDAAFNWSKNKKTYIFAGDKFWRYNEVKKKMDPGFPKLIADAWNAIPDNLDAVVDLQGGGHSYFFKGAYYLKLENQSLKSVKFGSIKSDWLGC

[4] = test system: protease activity sensed by Probe #102 (cathepsin L, CTSL) in K2 EDTA plasma; experiment: Protease inhibitor profiling of Probe #102 cleavage in NASH and healthy plasma; conditions: for effect of inhibitor on signal, in words: Probe #102, NASH and healthy plasma
Description: For this experiment, all plasma samples were prepared individually and diluted 1/10e in PBS with inhibitor added directly to the samples. Inhibitor was prepared at 15× concentration to final. Substrates were diluted in DI water at 18 uM, such that the final concentration on the plate would be 6 uM. All samples were prepared such that their last dilution on the plate would not affect the desired final concentration. 10 ul of each individual sample was pipetted into their corresponding wells, and the plate was then spun down in the centrifuge at 1500 RPM for 30 seconds to coat the bottom of each well with the sample. 5 ul of the 18 uM substrate solution was pipetted into each well being used on a 384 well plate, and then the plate was spun down in the centrifuge at 1500 rpm for 30 seconds. The plate was placed immediately in the plate reader at 37° C. for a 30-minute-long fluorescence kinetic read at 485/535 extended gain.
To assess the proteolytic cleavage pattern of Probe #102, samples were tested using a pool of broad inhibitors for serine, cysteine, threonine, MMP and aspartic protease family members (broad inhibitor) to assess general protease activity, AEBSF for serine proteases, E64 for cysteine proteases, CTSi for broad cathepsin inhibition of cathepsins L, S, K and B, or specific inhibitors for cathepsin K (L00625), for cathepsin L (SID) or cathepsin B (CA074).

MMPs in K2 EDTA plasma = experiment: Zinc reactivation of MMPs in human K2 EDTA plasma; type: biochemical; conditions: for protease activity recovered by Calcium compared to Zinc: Calcium up to 6 mM vs 1 mM Zinc, plasma
Text: In this experiment, MMPs are reactivated in K2 EDTA plasma that has been collected with EDTA. EDTA causes chelation of the […] ion and interferes with the stability of the MMPs and has high MMP inhibition activity in vitro. The goal of zinc addition was to reactivate potential MMPs in solution that have been inhibited due to the addition of K2 EDTA.
To reactivate the MMPs in plasma, the EDTA was completely titrated and bound to the Zinc while the excess zinc in the solution was also used as an activating agent for the MMPs. Zinc chloride (Alfa Aesar) was prepared in ddH2O and fully dissolved. The zinc chloride ([…]) solution was then diluted in an assay buffer designed for MMPs. The plasma samples were prepared in the MMP buffer and the plasma samples were combined with the ZnCl solution in a 3:1 ratio. The mixture was incubated on ice after being combined. While the samples were incubating, the related substrates were prepared for analysis. Substrates used in this experiment were Probes #117, 263, 349, and 417. Samples were added to a substrate of interest once the sample incubation was complete. The mixture was spun, and results were read on a Biotek Synergy H1 at Ex/Em=485/535 using extended dynamic range.

DPP4 = DPP4 (Homo sapiens, UniProt P27487); experiment: Recombinant protease screen of probes; type: biochemical; conditions: recombinant DPP4, 1 h fluorescence read
Description: as §1

MMP2 [5] = molecular target: T1, MMP2; experiment: Recombinant protease screen of probes; type: biochemical; conditions: recombinant MMP2, 1 h fluorescence read
Description: as §1

MMP20 = molecular target: T2, MMP20 (Homo sapiens, UniProt O60882); experiment: Recombinant protease screen of probes; type: biochemical; conditions: recombinant MMP20, 1 h fluorescence read
T2 sequence (O60882 108-483): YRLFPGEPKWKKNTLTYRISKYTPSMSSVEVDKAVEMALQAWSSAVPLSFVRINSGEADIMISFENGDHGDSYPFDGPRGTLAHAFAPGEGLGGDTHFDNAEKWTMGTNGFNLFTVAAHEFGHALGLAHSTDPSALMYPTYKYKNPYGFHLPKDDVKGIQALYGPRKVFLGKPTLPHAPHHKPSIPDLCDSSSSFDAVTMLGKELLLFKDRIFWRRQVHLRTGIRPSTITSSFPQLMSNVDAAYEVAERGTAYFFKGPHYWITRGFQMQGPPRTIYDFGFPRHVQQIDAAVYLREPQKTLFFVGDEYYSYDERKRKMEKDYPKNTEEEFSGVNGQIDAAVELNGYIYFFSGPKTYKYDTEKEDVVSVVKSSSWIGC
Description: as §1

[6] = test system: carboxylesterase 1, phospholipase A2 and lipoprotein lipase; experiment: Spiked recombinant enzymes in human plasma with resorufin oleate as substrate; type: biochemical
[7] = test system: protease activity in COVID and healthy plasma; experiment: Ex vivo probe assay in COVID and healthy plasma (K2 EDTA and Lithium Heparin); type: biochemical; conditions: K2 EDTA samples

Chain of DPP4 (P27487 whole entry, species assumed): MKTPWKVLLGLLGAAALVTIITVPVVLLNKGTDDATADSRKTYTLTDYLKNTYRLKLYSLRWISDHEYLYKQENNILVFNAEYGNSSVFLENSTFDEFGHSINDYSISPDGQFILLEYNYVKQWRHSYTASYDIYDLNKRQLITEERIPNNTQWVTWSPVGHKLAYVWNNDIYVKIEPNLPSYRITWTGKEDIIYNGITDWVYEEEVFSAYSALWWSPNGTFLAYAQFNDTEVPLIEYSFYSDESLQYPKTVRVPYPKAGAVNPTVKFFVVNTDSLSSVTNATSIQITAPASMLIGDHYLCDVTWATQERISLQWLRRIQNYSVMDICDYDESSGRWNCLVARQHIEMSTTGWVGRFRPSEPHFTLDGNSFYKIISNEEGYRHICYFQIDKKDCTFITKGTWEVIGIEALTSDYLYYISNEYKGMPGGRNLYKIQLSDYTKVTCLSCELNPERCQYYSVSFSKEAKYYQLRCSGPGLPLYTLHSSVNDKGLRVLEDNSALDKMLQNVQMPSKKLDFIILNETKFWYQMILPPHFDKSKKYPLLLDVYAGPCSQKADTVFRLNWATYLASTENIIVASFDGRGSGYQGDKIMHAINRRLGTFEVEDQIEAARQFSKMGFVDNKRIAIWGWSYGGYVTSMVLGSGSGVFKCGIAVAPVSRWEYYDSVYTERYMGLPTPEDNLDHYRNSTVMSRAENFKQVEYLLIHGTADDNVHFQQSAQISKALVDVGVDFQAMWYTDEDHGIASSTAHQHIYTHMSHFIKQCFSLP

## Probe #8: Caspase centric probe (5FAM-GVDVADGK(CPQ2)[PEG2′][dK][dK]GC; also: 5-FAM, CPQ2 quencher, PEG2, D-Lys-D-Lys-GC)
[1]
  contrast between healthy and Jo2 samples: show contrast that is specific and sensitive to the Jo2 model

## Probe #263: probe whose peptide linker is SEQ ID No 263 ({FAM}-GQKAAWDGK(CPQ2)-NH2; also: FAM, CPQ2 quencher)
MMP13
  protease sensed by probe: sensed
[2]
  Fold change ratio, Zinc Buffer: 2.09
  Fold change ratio, Normal Buffer: 1.7

## O=C([O-])CN(CCN(CC(=O)O)CC(=O)O)CC(=O)[O-].[K+].[K+] [K2 EDTA]
MMP2 [3]
  activity of recombinant MMP2 spiked into human K2 EDTA plasma: completely deactivated

## CC(C)C[C@H](NC(=O)[C@H]1O[C@@H]1C(=O)O)C(=O)NCCCCN=C(N)N [Probe E64, E64]
[4]
  effect of inhibitor on signal, in words: decreased NASH signal significantly

## [Ca] [Calcium]
MMPs in K2 EDTA plasma
  protease activity recovered by Calcium compared to Zinc: minimal protease activity is recovered
MMPs in K2 EDTA plasma; listed as calcium
  protease activity recovered by Calcium compared to Zinc: does not show similar activation effects

## CN1CCN(c2nc(-c3ccc(C(=O)NC4(C(=O)NCC#N)CCCCC4)cc3)cs2)CC1 [Probe L006235]
[4]
  effect of inhibitor on signal, in words: did not significantly decrease signal

## Probe #411: probe of Table 1; sensed DPP4 (5FAM-GAAFAGK(CPQ2)[PEG2′][dK][dK]GC; also: 5-FAM, CPQ2 quencher, PEG2, D-Lys-D-Lys-GC)
DPP4
  protease sensed by probe: sensed
[2]
  Fold change ratio, Zinc Buffer: 2.52
  Fold change ratio, Normal Buffer: 1.88

## Probe #117: probe whose peptide linker is SEQ ID No 117 ({FAM}-GAALHNDGK(CPQ2)[PEG2′][dK][dK]-NH2; also: FAM, CPQ2 quencher, PEG2, D-Lys-D-Lys, amide)
MMP2 [5]
  protease sensed by probe: sensed
MMP20
  protease sensed by probe: sensed
[2]
  Fold change ratio, Zinc Buffer: 2.11
  Fold change ratio, Normal Buffer: 1.47

## [Cl-].[Cl-].[Zn+2] [Zinc, Zinc chloride]
MMPs in K2 EDTA plasma; across all vendors tested, Probe #349
  optimal Zinc concentration: 1 mM
MMP2 [3]
  activity of recombinant MMP2 spiked into human K2 EDTA plasma: capable of reviving the MMP2 activity in plasma

## Resorufin oleate
[6]
  suitability as substrate for detection of enzymes: promising for detection of broad range of enzymes

## CCCNC(=O)[C@H]1O[C@@H]1C(=O)N[C@H](C(=O)N1CCC[C@H]1C(=O)O)[C@@H](C)CC [CA074]
[4]
  effect of inhibitor on signal, in words: did not significantly decrease signal

## NCCc1ccc(S(=O)(=O)F)cc1 [AEBSF]
[4]; Probe #102, NASH plasma
  decrease of signal in NASH samples by inhibitor: 65%
[4]; Probe #102, healthy plasma
  decrease of signal in healthy samples by inhibitor: 60%

## Probe #409: the SARS CoV2 coronavirus substrate (SARS-COV2 3C protease) (GTSAVLQSGFRKGK; also: 5-FAM, CPQ2 quencher, PEG2-kk-GC)
[7]
  contrast between COVID and healthy samples: modest contrast

## CCCC(=O)O [butyrate]
[6]
  suitability as substrate for detection of enzymes: promising for detection of broad range of enzymes

## Probe #12: Caspase centric probe (5FAM-GDEVDGK(CPQ2)[PEG2′][dK][dK]GC; also: 5-FAM, CPQ2 quencher, PEG2, D-Lys-D-Lys-GC)
[1]
  contrast between healthy and Jo2 samples: show contrast that is specific and sensitive to the Jo2 model
